Key:
[1] = tested on: synthesis of LTB4 in human whole blood; assay: Human whole blood assay (calcimycin-stimulated LTB4 synthesis); format: cell-based; settings: Homo sapiens; read-out: Human Whole Blood LTB4 Assay for FLAP (IC50 nM)
Method: Compounds are additionally tested in a human whole blood assay to determine their ability to inhibit the synthesis of LTB4 in a cellular system. Compounds are combined with heparinized human whole blood and incubated for 15 minutes at 37° C. Calcimycin (20 μM final, prepared in phosphate-buffered saline, pH 7.4) is then added and the mixture is incubated for another 30 minutes at 37° C. The samples are centrifuged for 5 min at low speed (1500×g) and the plasma layer is removed. Plasma LTB4 concentrations are then measured using an antibody-based homogenous time-resolved fluorescence method (CisBio, Bedford, Mass.).

[2] = target: T1, recombinant human FLAP protein (Homo sapiens, UniProt P20292); assay: FLAP binding assay (Scintillation Proximity Assay, displacement of [125I]L-691,831); settings: read-out: Human FLAP SPA Binding (IC50 nM)
T1 construct: made in house; host or cells: Sf9 insect cells (membrane fraction, 100,000 x g pellet)
T1 sequence (P20292 1-161): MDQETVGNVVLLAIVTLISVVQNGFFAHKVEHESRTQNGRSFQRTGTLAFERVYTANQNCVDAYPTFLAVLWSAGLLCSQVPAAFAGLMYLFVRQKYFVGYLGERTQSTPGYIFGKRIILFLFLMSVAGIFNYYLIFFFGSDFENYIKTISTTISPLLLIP
Method: Compounds are assessed for the ability to bind to FLAP in a binding assay that measures compound-specific displacement of an iodinated (^125I) FLAP inhibitor via a Scintillation Proximity Assay format (adapted from S. Charleson et al., Mol. Pharmacol., 1992, 41, 873-879).
Cell pellets produced from sf9 insect cells expressing recombinant human FLAP protein are resuspended in buffer A [15 mM Tris-HCl (pH 7.5), 2 mM MgCl2, 0.3 mM EDTA, 1 mM PMSF]. The cells are lysed with a Dounce homogenizer and the material is centrifuged at 10,000×g for 10 minutes. The supernatant is then collected and centrifuged at 100,000×g for 60 minutes. To prepare membrane protein for an assay, an aliquot of the 100,000×g pellet is resuspended in 1 ml of buffer A, Dounce homogenized, and finally subjected to polytron mixing (30 seconds). Membrane protein (25 μl, 5 μg) is mixed with WGA SPA beads (Amersham) and stirred for 1 h. To an assay plate (Perkin Elmer FlexiPlate) is added 25 μl of test compound prepared in Binding buffer [100 mM Tris (pH 7.5), 140 mM NaCl, 5% glycerol, 2 mM EDTA, 0.5 mM TCEP, 0.05% Tween 20], 25 μl of [^125I]L-691,831 (an iodinated analog of MK-591, Charleson et al. Mol. Pharmacol., 41, 873-879, 1992) and finally 50 μl of the bead/protein mixture. (final concentrations: beads, 200 μg/well; protein, 5 μg/well; [^125I] probe, 0.08 nM/well (17 nCi/well). The plates are shaken for 2 h before reading on a Microbeta plate reader. Non-specific binding is determined by the addition of 10 μM cold L-691,831 compound.

Compound	IC50 [1] [nM]	IC50 [2] [nM]
CC(C)C(C)(c1ccc(-c2cnc(N)nc2)cc1)c1cn(C)c2ccc(F)cc12 (centres unmarked) [Example 31, 5-{4-[2-(5-fluoro-1-methyl-1H-indol-3-yl)-3-methylbutan-2-yl]phenyl}pyrimidin-2-amine]	1200	7.1
CC(C)C(C)(c1ccc(-c2cnc(N)nc2)cc1)c1cc2c(F)cccc2[nH]1 (centres unmarked) [Example 62, 5-{4-[2-(4-fluoro-1H-indol-2-yl)-3-methybutan-2-yl]phenyl}pyrimidin-2-amine]	2300	18
Cc1ccc(-c2cnc(C3(c4ccc(-c5cnc(N)nc5)cc4)CCC3)s2)cn1 [Example 15, 5-(4-{1-[5-(6-methylpyridin-3-yl)-1,3-thiazol-2-yl]cyclobutyl}phenyl)pyrimidin-2-amine]	220	1.8
COc1ncccc1-c1nnc(C2(c3ccc(-c4cnc(N)nc4)cc3)CCC2)[nH]1 [Example 153, 5-(4-{1-[5-(2-methoxypyridin-3-yl)-4H-1,2,4-triazol-3-yl]cyclobutyl}phenyl)pyrimidin-2-amine]	1100	3.1
CC(C)(O)Cn1cc(-c2coc(C(C)(c3ccc(-c4cnc(N)nc4)nc3)C3CC3)n2)cn1 (centres unmarked) [Example 209, 1-[4-(2-{1-[6-(2-Amino-pyrimidin-5-yl)-pyridin-3-yl]-1-cyclopropyl-ethyl}-oxazol-4-yl)-pyrazol-1-yl]-2-methyl-propan-2-ol]	560	300
Nc1ncc(-c2ccc(C3(c4nnc(-c5cccnc5)[nH]4)CCC3)cc2)cn1 [Example 102, 5-(4-{1-[5-(pyridin-3-yl)-4H-1,2,4-triazol-3-yl]cyclobutyl}phenyl)pyrimidin-2-amine]	900	3.7
COc1cccc2c1c(C(C)(c1ccc(-c3cnc(N)nc3)cc1)C(C)C)cn2Cc1ccccn1 (centres unmarked) [Example 50, 5-(4-{2-[4-methoxy-1-(pyridin-2-ylmethyl)-1H-indol-3-yl]-3-methylbutan-2-yl}phenyl)pyrimidin-2-amine]	> 5000	260
Nc1ncc(-c2ccc(C3(c4c[nH]c5ccccc45)CCC3)cc2)cc1CO [Example 118, [2-amino-5-[4-[1-(1H-indol-3-yl)cyclobutyl]phenyl]-3-pyridyl]methanol]	69	1.6
CC(c1ccc(-c2cnc(N)nc2)cc1)(c1cc(O)n(-c2ccccc2)n1)C1CC1 (centres unmarked) [Example 175, 3-{1-[4-(2-aminopyrimidin-5-yl)phenyl]-1-cyclopropylethyl}-1-phenyl-1H-pyrazol-5-ol]	1100	10
Cn1cc(-c2coc([C@@](C)(c3ccc(-c4cnc(N)nc4)nc3)C3CC3)n2)cn1 [Example 207, 5-(5-{(R)-1-Cyclopropyl-1-[4-(1-methyl-1H-pyrazol-4-yl)-oxazol-2-yl]-ethyl}-pyridin-2-yl)-pyrimidin-2-ylamine]	220	110
Cc1ccc(-c2nnc(C3(c4ccc(-c5cnc(N)nc5)cc4)CCC3)[nH]2)cn1 [Example 129, 5-(4-{1-[5-(6-methylpyridin-3-yl)-4H-1,2,4-triazol-3-yl]cyclobutyl}phenyl)pyrimidin-2-amine]	4000	7.6
CC(C)C(C)(c1ccc(-c2cnc(N)nc2)cc1)c1nc(N2CCNCC2)no1 (centres unmarked) [Example 21, 5-[4-[1,2-dimethyl-1-(3-piperazin-1-yl-1,2,4-oxadiazol-5-yl)propyl]phenyl]pyrimidin-2-amine; formic acid]	1600	38
Nc1ncc(-c2ccc(C3(c4cn(Cc5ccccn5)c5ccccc45)CCOCC3)cc2)cn1 [Example 35, 5-(4-{4-[1-(pyridin-2-ylmethyl)-1H-indol-3-yl]tetrahydro-2H-pyran-4-yl}phenyl)pyrimidin-2-amine]	> 5000	150
Nc1ncc(-c2ccc(C3(c4cccn4S(=O)(=O)c4ccccc4)CCC3)cc2)cn1 [Example 169, 5-(4-{1-[1-(phenylsulfonyl)-1H-pyrrol-2-yl]cyclobutyl}phenyl)pyrimidin-2-amine]	2000	110
CC(C)C(C)(c1ccc(-c2cnc(N)nc2)nc1)c1nc(-c2cnn(C)c2)no1 (centres unmarked) [Example 22, 5-(5-{3-methyl-2-[3-(1-methyl-1H-pyrazol-4-yl)-1,2,4-oxadiazol-5-yl]butan-2-yl}pyridin-2-yl)pyrimidin-2-amine]	710	44
CC(C)C(C)(c1ccc(-c2cnc(N)nc2)cc1)c1c[nH]c2ccc(F)cc12 (centres unmarked) [Example 63, 5-{4-[2-(5-fluoro-1H-indol-3-yl)-3-methylbutan-2-yl]phenyl}pyrimidin-2-amine]	440	3

More lines, now with the values ahead:

IC50 [1] [nM]	IC50 [2] [nM]	Compound
430	1.7	Nc1ncc(-c2ccc(C3(c4c[nH]c5ccccc45)CCCC3)cc2)cn1 [Example 88, 5-{4-[1-(1H-indol-3-yl)cyclopentyl]phenyl}pyrimidin-2-amine]
500	2.3	Nc1ncc(-c2ccc(C3(c4c[nH]c5c(C(=O)N6CC[C@H](O)C6)cccc45)CCC3)cc2)cn1 [Example 135, (3-{1-[4-(2-aminopyrimidin-5-yl)phenyl]cyclobutyl}-1H-indol-7-yl)[(3S)-3-hydroxypyrrolidin-1-yl]methanone]
> 5000	5.5	Nc1ncc(-c2ccc(C3(c4cn(CC(=O)O)c5ccccc45)CCC3)cc2)cn1 [Example 124, (3-{1-[4-(2-aminopyrimidin-5-yl)phenyl]cyclobutyl}-1H-indol-1-yl)acetic acid]
1500	210	COC(=O)c1c[nH]cc1C1(c2ccc(-c3cnc(N)nc3)cc2)CCC1 [Example 162, methyl 4-[1-[4-(2-aminopyrimidin-5-yl)phenyl]cyclobutyl]-1H-pyrrole-3-carboxylate]
> 5000	7.5	Nc1ncc(-c2ccc(C3(c4cn(CC(=O)N5CC(O)C5)c5ccccc45)CCC3)cc2)cn1 [Example 133, 2-(3-{1-[4-(2-aminopyrimidin-5-yl)phenyl]cyclobutyl}-1H-indol-1-yl)-1-(3-hydroxyazetidin-1-yl)ethanone]
650	17	COC(=O)c1[nH]cc(Br)c1C1(c2ccc(-c3cnc(N)nc3)cc2)CCC1 [Example 174, methyl 3-{1-[4-(2-aminopyrimidin-5-yl)phenyl]cyclobutyl}-4-bromo-1H-pyrrole-2-carboxylate]
> 5000	1.5	Nc1ncc(-c2ccc(C3(c4c[nH]c5c(C(=O)O)cccc45)CCC3)cc2)cn1 [Example 150, 3-{1-[4-(2-aminopyrimidin-5-yl)phenyl]cyclobutyl}-1H-indole-7-carboxylic acid]
230	3.3	Cc1nnc(CN(C)C(=O)c2cccc3c(C4(c5ccc(-c6cnc(N)nc6)cc5)CCC4)c[nH]c23)o1 [Example 11, 3-{1-[4-(2-aminopyrimidin-5-yl)phenyl]cyclobutyl}-N-methyl-N-[(5-methyl-1,3,4-oxadiazol-2-yl)methyl]-1H-indole-7-carboxamide]
1100	2.6	CN(CCO)C(=O)c1cccc2c(C3(c4ccc(-c5cnc(N)nc5)cc4)CCC3)c[nH]c12 [Example 115, 3-{1-[4-(2-aminopyrimidin-5-yl)phenyl]cyclobutyl}-N-(2-hydroxyethyl)-N-methyl-1H-indole-7-carboxamide]
370	2.5	Nc1ncc(-c2ccc(C3(c4c[nH]c5c(=O)[nH]ccc45)CCC3)cc2)cn1 [Example 155]
450	7.9	COCCNC(=O)c1[nH]c2ccccc2c1C1(c2ccc(-c3cnc(N)nc3)cc2)CCC1 [Example 193]
270	1.8	Nc1ncc(-c2ccc(C3(c4c[nH]c5c(C(=O)N6CC[C@@H](O)C6)cccc45)CCC3)cc2)cn1 [Example 134, (3-{1-[4-(2-aminopyrimidin-5-yl)phenyl]cyclobutyl}-1H-indol-7-yl)[(3R)-3-hydroxypyrrolidin-1-yl]methanone]

— patent US9174980B2, “Heterocyclic compounds as inhibitors of leukotriene production” (Boehringer Ingelheim International GmbH, priority 2012, dated 2015)
